Molecules are shown by their SMILES.

A word on the melting point: it is the temperature, or range, at which the solid turns liquid. For `CCC(=C(c1ccccc1)c1ccc(C=CC(=O)N(CC)CC)cc1)c1ccccc1`, the melting point fell in the range of 138 to 140 °C.
The result for `CN1CC(=O)c2ccc3ccccc3c2S1(=O)=O` reads 192 to 193 °C; that for `Nc1nc2ccccc2c2sc(CCc3ccccc3)nc12`, 158 to 159 °C; that for `Cc1cc(C2=NCCO2)cc(C)c1O`, 184 to 186 °C.
The figure for `O=C(O)Cc1c(C(=O)c2cc(C(=O)O)no2)[nH]c2ccc(Cl)cc12` is 200 to 205 °C.
The result for `O=C(NCCN1CCCC1)c1ccc(=O)n(Cc2ccc(-c3ccccc3)cc2)c1` reads 142 to 152 °C; that for `CC(=O)OCC(=O)N(c1c(C)ccc2ccccc12)C1CCOC1=O` (stereo unspecified), 50 to 70 °C; that for `O=C(O)C(c1ccccc1)N1C(=O)c2cccc([N+](=O)[O-])c2C1=O` (stereo unspecified), 213 to 229 °C.
Turning to `CCC(=O)N1CCC(COc2cccc3nc(C)c(C(=O)O)c(N)c23)CC1`, the melting point is 168 to 170 °C.
The result for `OC1CSc2nc(SCc3ccccc3)nn21` (stereo unspecified) reads 136 to 138 °C.
The figure for `CC(=O)SCC(Cc1ccccc1)C(=O)NC(CCCNC(=N)N)C(=O)O` (stereo unspecified) is 253 to 295 °C.
The result for `CC(=O)Nc1cccc2c1CCC(NC(C)c1ccccc1)C2` (stereo unspecified) reads 158 °C; that for `Cc1nnc(Sc2nc3ccc(Cl)cc3nc2C)s1`, 189 to 190 °C; that for `Cc1cc2c(-c3ccccc3)c(CC(=O)O)n(C)c(=O)c2cc1C`, 217 to 220 °C.
For the compound `COc1ccc2cccc3c2c1C(=O)N(O)C3=O`, the melting point fell in the range of 205 to 206 °C.
The figure for `CC(=NO)C(C)(C)NCC(O)CNC(C)(C)C(CCn1ccnc1[N+](=O)[O-])=NO` (stereo unspecified) is 62 to 64 °C; for `Cc1[nH]c(-c2ccccc2)nc1C(O)C(C)C` (stereo unspecified) it is 214 °C; for `COc1ccc(C(=C2CCCCC2)c2ccc(OC)c(OC)c2)cc1OC` it is 107 °C.
The figure for `CCNC(=O)Nc1ccc2c(c1Cl)C(c1ccccc1F)=NCC(=O)N2C` is 155 to 160 °C; for `CSc1[nH]c(-c2ccccc2C)cc1C#N` it is 148 to 149 °C; for `CC(=O)NC(Cc1ccccc1)C(=O)OCc1cc(C)cc(C)c1` (stereo unspecified) it is 97 to 100 °C.
The figure for `CC(C)(C)c1noc(-c2ncn3c2[C@@H]2CCCN2C(=O)c2c(Cl)cccc2-3)n1` is 222 to 224 °C; for `CN1C(c2ccc3ccccc3c2)CC(=O)CC1c1ccc2ccccc2c1` (stereo unspecified) it is 209 to 212 °C.
In the case of `O=C1N(N2CCCCC2)c2ccccc2C1(Cc1ccncc1)c1ccccc1` (stereo unspecified), the melting point was in the range of 128 to 131 °C.
The result for `CC(=O)n1cnc2c(CBr)cccc21` reads 109 to 112 °C; that for `Cc1ccc2c(=O)nc(-c3cccc(CCC(=O)OC(C)(C)C)n3)sc2c1`, 135 °C.
The figure for `COC(=O)C(Cc1ccc(OCC(=O)Nc2ccc(Oc3ccc(C45CC6CC(CC(C6)C4)C5)cc3)cc2N(C)C(=O)OC(C)(C)C)cc1)OCc1ccc(F)cc1` (stereo unspecified) is 52 to 56 °C; for `CCCCCCOc1ccc(CC2SC(=O)NC2=O)cc1` (stereo unspecified) it is 52 to 54 °C.
The result for `O=c1ccoc(C=Cc2ccc(O)cc2)c1` reads 198 to 201 °C; that for `CCCCCC(O)CNC` (stereo unspecified), 40 to 43 °C; that for `N#Cc1cccc(NC(=O)c2ccc(-n3nc(C(F)(F)F)cc3C(F)(F)F)cc2)c1`, 195 to 196 °C.
Consider `CN(CC(O)[C@H](Cc1ccccc1)NC(=O)c1ccccc1)C(=O)N1CCC[C@H]1C(=O)O` (stereo partly specified), for which the melting point is 108 to 117 °C.
The figure for `CN(C)Cc1nc(-c2ncn3c2[C@@H]2CCN2C(=O)c2cc(F)ccc2-3)no1` is 150 to 155 °C; for `CCc1oc2ccccc2c1C(=O)N(Cc1ccccc1)Cc1ccc2c(Br)c(O)ccc2c1` it is 125 to 130 °C; for `O=C(CCc1ccccc1)N[C@H]1CCCN2CCC[C@@H](C(=O)O)N2C1=O` it is 198 to 202 °C.
`CC(=O)Nc1cccc(Oc2c(N)cc(C(=O)O)cc2S(N)(=O)=O)c1` registered a melting point of 295 °C.
The compound `O=C1c2c(-c3ccccc3)cc(CO)nc2OCCN1Cc1cc(C(F)(F)F)cc(C(F)(F)F)c1` returned a melting point of 199 to 201 °C.
The result for `Cc1[nH]c(=O)c(C#N)cc1-c1ccccc1` reads 280 to 290 °C.
`O=C(Cc1cccc2ccccc12)Nc1cc([C@H]2C[C@@H](NC(=O)c3ccccc3)C2)[nH]n1` displayed a melting point of 194 °C.
`O=C(O)Cc1c(C(=O)O)c2cc(Oc3cccc(Cl)c3)ccc2n1-c1ccc(OC(F)(F)F)cc1` had a melting point of 190 to 195 °C.
The compound `CC[C@H](CC(=O)NC(=O)OC)Nc1ccc(C(F)(F)F)cc1` gave a melting point of 142 °C.
The result for `COCCCNC(=O)c1cc(C(=O)OC)c(O)c2ncc(Cc3ccc(F)cc3)cc12` reads 166 to 167 °C.
The figure for `O=c1c2cnn(Cc3ccccc3)c2nc2n1CCS2` is 180 to 182 °C.
Compound `CC(=O)c1cc(F)ccc1Oc1nc2ccc(N=[N+]=[N-])cc2cc1Cc1ccccc1` showed a melting point of 127 to 130 °C.
On to `c1ccc(Oc2cccc(CSc3nc4cnccc4[nH]3)c2)cc1`, for which the melting point lay within 156 to 158 °C.
The result for `O=C1CCC(N2Cc3c(CNC(=O)c4ccco4)cccc3C2=O)C(=O)N1` (stereo unspecified) reads 219 to 221 °C; that for `CS(=O)C=C1C(C)(C)CCC1(C)C` (stereo unspecified), 74.7 °C; that for `COc1ccc(-c2coc3cc(O)ccc3c2=O)c(O)c1`, 210 to 212 °C.
As for `O=c1nc(NCCCn2ccnc2)n2c3c1cnn3C(c1cccc(F)c1)=CC2`, the melting point lay in the range of 256 to 258 °C.
The compound `Cc1cc(C)c2c(c1Br)CC=C2` came in with a melting point of 34 °C.
The figure for `Nc1ncccc1OCc1c(F)cc(F)cc1F` is 122 to 124 °C.
On to `O=C1c2cccc(NC(=S)Nc3ncccc3Br)c2C2CCCCN12` (stereo unspecified), for which the melting point stood at 180 °C.
The figure for `O=c1nc(Nc2ccc(I)cc2)sc2ncccc12` is 263 to 264 °C.
The result for `CC(C)(C)OC(=O)Nc1ccccc1NC(=O)c1ccc(C(=O)Nc2cccc(Nc3nc(-c4cccnc4)cs3)c2)s1` reads 198 °C; that for `CCC1C(=O)c2cc(OCC(=O)O)c(C)c(C)c2C1=O` (stereo unspecified), 187 to 193 °C.
The figure for `COC(=O)c1c(CC(C)C)nc2ccc(Br)cc2c1-c1ccccc1` is 108 to 110 °C.
Compound `COc1ccc(N(C)c2nccc(-c3ccncc3)n2)cc1` returned a melting point of 124 to 126 °C.
The result for `O=C(O)C(=O)c1ccc(OC/C=C/c2ccc3ccccc3c2)cc1` reads 142 to 143 °C; that for `CCOC(=O)c1nn(-c2ccc(Cl)cc2)c(=O)c2c(N)scc12`, 189 to 191 °C; that for `NC(=S)C(c1ccccc1)c1cccnn1` (stereo unspecified), 161 to 163 °C.
The result for `O=[N+]([O-])c1ccc2c(ccn2Cc2ccccc2)c1` reads 102 to 104 °C; that for `CCCNC(=S)N1CCc2[nH]cnc2C1`, 151 °C; that for `CCOP(=O)(OCC)c1c(-c2c(OC)ccc3ccccc23)c(C)c2c(c1-c1ccccc1)COC2`, 54.1 to 56 °C.
The figure for `NCCCOc1ccc(-c2nnc(CSCCOc3ccccc3)o2)cc1` is 30 to 35 °C.
In turn, `COc1c(Cl)cc(NC(=O)OCCCl)c(OC)c1[N+](=O)[O-]` had a melting point of 93 °C.
The result for `Clc1ccccc1C=C(Cn1cncn1)C1(Cl)CC1` reads 82 to 85 °C; that for `CCCCn1c(=O)n(CCC)c(=O)c2c(N)n[nH]c21`, 209 to 211 °C.
In turn, `OC(c1cccc(OCc2ccc3ccccc3n2)c1)(c1nccs1)C(F)(F)F` (stereo unspecified) showed a melting point of 177 °C.
The result for `COc1cc(OC)c(C2C=CCO2)cc1C=CC(=O)c1ccc(S(N)(=O)=O)cc1` (stereo unspecified) reads 194 to 195 °C; that for `Cc1ccccc1-c1c2c(cc3ccc4c(c13)OCO4)C(=O)NC2`, 252 to 255 °C; that for `COc1ccc(CNc2nc(N)n3nc(-c4ccco4)nc3n2)cc1`, 238 to 239 °C.
The figure for `COc1cccc(CC(O)C2CCN(CS(N)(=O)=O)CC2)c1OC` (stereo unspecified) is 112 to 114 °C; for `C[Si](C)(C)OC1(C#N)CCOc2c(Cl)cc(Cl)cc21` (stereo unspecified) it is 77 to 79 °C; for `CN1C2CCC1CN(c1ccc(Br)nn1)C2` it is 118 to 120 °C.
The result for `Cc1cc(N)c([N+](=O)[O-])c(C)c1N` reads 124 °C; that for `O=C(O)c1cnc(Nc2cc3c4c(c2)CCCC4CCC3)nc1`, 296 to 298 °C; that for `Cn1cccc(C(=O)Nc2ccc3c(c2)NC(=O)/C3=C\c2ccc[nH]2)c1=O`, greater than 300 °C.
`O=C1CC(c2ccc(OCc3ccccc3)cc2)=Nc2ccc(N3CCOCC3)cc21` yielded a melting point of 320 to 323 °C.
The result for `CCCCCCCCCCCCCCCCCCOc1ccc2c(c1OCCCCCCCCCCCCCCCCCC)C(=O)c1ccccc1C2=O` reads 100 to 107 °C; that for `NS(=O)(=O)c1ccc(-c2cn(-c3nc(-c4ccc(Cl)cc4)cc(C(F)(F)F)n3)cn2)cc1`, 324 °C; that for `CC(=O)OC1C(CO)OC(n2cnc3c(N)ncnc32)C1O` (stereo unspecified), 195 to 201 °C.
In turn, `CN(CCN(C)c1ccc(OS(=O)(=O)C(F)(F)F)nc1)c1ccc(OS(=O)(=O)C(F)(F)F)nc1` returned a melting point of 146 to 148 °C.
The result for `CC(=O)Nc1ccc(S(=O)(=O)Nc2nnc(C)s2)cc1` reads 239 to 240 °C; that for `CC(Oc1ccnc2cc(Cl)ccc12)c1ccccc1F` (stereo unspecified), 53 to 54 °C; that for `COC(=O)COc1ccc2ccc(O)c(C(C)=O)c2c1`, 113 to 114 °C.
For the compound `NC(=O)c1ncn2c1[C@@H]1CCN1C(=O)c1cc(F)ccc1-2`, the melting point was in the range of 223 to 224 °C.
The figure for `CCOC(=O)C1=C(O)c2cc3ccccc3n2CCC1` is 74 to 81 °C; for `CC(C)(C)C(=O)CC(=O)c1ccccc1` it is 43 to 45 °C.
The figure for `CCOC(=O)COc1coc(CCl)cc1=O` is 98 to 100 °C; for `O=P(O)(O)C(F)(F)P(=O)(O)O` it is 87 to 90 °C; for `CCCc1nc2c(N)nc3ccccc3c2n1CCCC(=O)CC(C)C` it is 136 to 138 °C.

The values above are taken from a melting point compilation (Tetko et al.; mined from patent text by program, amines drawn as free bases though some values may be those of a salt).
